In one test the target is T1, human Gcg receptor (Homo sapiens, UniProt P47871).
T1 construct: expressed in transfected cells; crude membranes
Kind of test: [125I]-Glucagon binding (SPA), human Gcg receptor. The settings on record: read-out: hGLcgR Ki, nM (SEM, n). The essentials:
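Scintillation counts are taken after membranes and WGA beads incubate and settle for 12 hours at room temperature. Buffer is 25 mM HEPES, pH 7.4, with CaCl2, MgCl2, bacitracin and Tween-20. Ki values, from four-parameter IC50 fits, are geometric means over independent days.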

Another test deals with T2, human GIP receptor (Homo sapiens, UniProt P48546).
T2 construct: expressed in transfected cells; crude membranes
T2 sequence (P48546 22-466): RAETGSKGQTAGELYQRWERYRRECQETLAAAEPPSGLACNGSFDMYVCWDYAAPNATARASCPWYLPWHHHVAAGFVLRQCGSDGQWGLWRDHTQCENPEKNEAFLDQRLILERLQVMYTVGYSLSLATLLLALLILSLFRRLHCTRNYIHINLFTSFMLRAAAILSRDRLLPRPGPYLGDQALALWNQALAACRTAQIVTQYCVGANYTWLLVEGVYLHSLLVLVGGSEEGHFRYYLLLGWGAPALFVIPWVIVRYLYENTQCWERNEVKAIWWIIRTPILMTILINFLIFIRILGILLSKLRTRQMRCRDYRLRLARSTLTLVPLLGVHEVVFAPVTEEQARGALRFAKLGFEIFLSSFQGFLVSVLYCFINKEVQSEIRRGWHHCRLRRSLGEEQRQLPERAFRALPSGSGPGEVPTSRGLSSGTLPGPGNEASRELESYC
Kind of test: [125I]-GIP binding (SPA), human GIP receptor. Conditions: read-out: hGIPR Ki, nM (SEM, n).

In test [1] the target is human GLP-1 receptor (GLP-1R) (Homo sapiens, UniProt P43220). Kind of test: cAMP pharmacological functional assay in presence of casein, hGLP-1R. Format: cell-based. The settings on record: HEK293 cells expressing hGLP-1R, 0.1% Casein, geometric mean; read-out: hGLP1R cAMP Rel EC50 nM (SEM, n).
Test [2] addresses T3, gastric inhibitory peptide receptor (GIPR) (Homo sapiens, UniProt P48546).
T3 sequence (P48546 22-466): T2 sequence (P48546 22-466)
Briefly: cAMP pharmacological functional assay in presence of casein, hGIPR. The format is cell-based. The settings on record: HEK293 cells expressing hGIPR, 0.1% Casein, geometric mean; read-out: hGIPR cAMP Rel EC50 nM (SEM, n).

The target in another test is human GLP-1R (Homo sapiens, UniProt P43220). Kind of test: [125I]-GLP-1 binding (SPA), human GLP-1 receptor. Set-up: expressed in transfected cells; crude membranes. The settings on record: read-out: hGLP1R Ki, (nM) (SEM, n). The method in brief: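 Assay buffer: HEPES 25 mM, pH 7.4, CaCl2 2.5 mM, MgCl2 1 mM, with EDTA-free protease inhibitors. Receptor came from crude cell membranes prepared by homogenization and centrifugation at 4° C. IC50s came from four-parameter fits (maximum, minimum, IC50, Hill slope) and were expressed as Ki geometric means with SEM.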

Numbered stars: 1 amine (or outer) side, 2 acyl side, 3 side chain; on linkers, the order of the positions; unused ones are H or OH. Square brackets hold non-standard residues; d marks the D form. Side chains are listed from the residue outwards. Peptide text beside a SMILES is read from it. * marks the point of attachment. C20 diacid = O=C(O)CCCCCCCCCCCCCCCCCCC(=O)*; C18 diacid = O=C(O)CCCCCCCCCCCCCCCCC(=O)*; αMePhe(2-F) = C[C@](N)(Cc1ccccc1F)C(=O)O; γGlu = O=C(O)[C@H](CCC(=O)[*:2])N[*:1]; αMeL = CC(C)C[C@](C)(N)C(=O)O; Dab = NCC[C@H](N)C(=O)O; Dap = NC[C@H](N)C(=O)O; AEEA = NCCOCCOCC(=O)O; Aib = CC(C)(N)C(=O)O

T1 sequence (P47871 26-477): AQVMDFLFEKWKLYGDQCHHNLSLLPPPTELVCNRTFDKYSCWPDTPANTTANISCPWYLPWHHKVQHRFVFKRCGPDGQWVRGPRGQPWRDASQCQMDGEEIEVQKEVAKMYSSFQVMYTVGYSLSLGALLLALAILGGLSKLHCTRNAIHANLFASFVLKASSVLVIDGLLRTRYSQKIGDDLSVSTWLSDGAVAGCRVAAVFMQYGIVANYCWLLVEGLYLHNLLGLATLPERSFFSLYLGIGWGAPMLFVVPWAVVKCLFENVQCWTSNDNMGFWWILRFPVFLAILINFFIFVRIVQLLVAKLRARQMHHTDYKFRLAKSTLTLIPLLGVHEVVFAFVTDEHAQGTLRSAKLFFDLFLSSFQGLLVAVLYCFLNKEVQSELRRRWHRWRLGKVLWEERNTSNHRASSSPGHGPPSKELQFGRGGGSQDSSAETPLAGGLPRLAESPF
Chain of human GLP-1 receptor (GLP-1R) (P43220 24-463): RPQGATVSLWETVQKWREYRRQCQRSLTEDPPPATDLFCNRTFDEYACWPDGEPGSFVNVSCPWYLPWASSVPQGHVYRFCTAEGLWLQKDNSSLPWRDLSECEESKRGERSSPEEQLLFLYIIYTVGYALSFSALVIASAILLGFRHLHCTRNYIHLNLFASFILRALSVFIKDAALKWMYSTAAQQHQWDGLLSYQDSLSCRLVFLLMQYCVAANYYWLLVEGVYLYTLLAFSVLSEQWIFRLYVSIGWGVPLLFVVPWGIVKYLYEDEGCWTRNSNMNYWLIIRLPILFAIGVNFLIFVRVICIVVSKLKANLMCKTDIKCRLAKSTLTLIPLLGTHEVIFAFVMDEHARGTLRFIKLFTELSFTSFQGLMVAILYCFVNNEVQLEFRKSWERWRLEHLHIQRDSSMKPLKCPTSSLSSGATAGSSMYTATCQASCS
Chain of human GLP-1R (P43220 24-463): as above

As usually defined, the Ki is a dissociation constant, usually derived from enzyme kinetics or from competition with a known ligand. A word on the EC50: it is the midpoint of the concentration-response curve. With `CC[C@H](C)[C@H](NC(=O)[C@H](CC(C)C)NC(=O)[C@H](Cc1ccc(O)cc1)NC(=O)[C@@H](CCC(=O)O)NC(=O)[C@@H](NC(=O)[C@H](Cc1ccccc1)NC(=O)[C@H](CCC(=O)O)NC(=O)C(C)(C)NC(=O)[C@H](CCC(N)=O)NC(=O)[C@H](C)NC(=O)[C@H](CCCCNC(=O)COCCOCCNC(=O)COCCOCCNC(=O)[C@@H](N)CCCCNC(=O)CCCCCCCCCCCCCCCCCCC(=O)O)NC(=O)[C@H](CCC(=O)O)NC(=O)[C@H](CC(=O)O)NC(=O)[C@H](CC(C)C)NC(=O)C(C)(CC(C)C)NC(=O)[C@@H](NC(=O)[C@H](CO)NC(=O)[C@H](Cc1ccc(O)cc1)NC(=O)[C@H](CC(=O)O)NC(=O)[C@H](CO)NC(=O)[C@@H](NC(=O)C(C)(Cc1ccccc1F)NC(=O)[C@@H](NC(=O)CNC(=O)[C@H](CCC(=O)O)NC(=O)C(C)(C)NC(=O)[C@@H](N)Cc1ccc(O)cc1)[C@@H](C)O)[C@@H](C)O)[C@@H](C)CC)[C@@H](C)CC)C(=O)N[C@@H](CCC(=O)O)C(=O)NCC(=O)NCC(=O)N1CCC[C@H]1C(=O)N[C@@H](CO)C(=O)N[C@@H](CO)C(=O)NCC(=O)N[C@@H](C)C(=O)N1CCC[C@H]1C(=O)N1CCC[C@H]1C(=O)N1CCC[C@H]1C(=O)N[C@@H](CO)C(N)=O` (stereo partly shown) [Example 216], the Ki stood at 45.2 nM on human Gcg receptor, 0.0559 nM at human GIP receptor and 2.34 nM at human GLP-1R. Further, the EC50 worked out at 0.0327 nM in test [1] and 0.0401 nM in test [2].
In the case of `CC[C@H](C)[C@H](NC(=O)[C@H](CC(C)C)NC(=O)[C@H](Cc1ccc(O)cc1)NC(=O)[C@@H](CCC(=O)O)NC(=O)[C@@H](NC(=O)[C@H](Cc1ccccc1)NC(=O)[C@H](CCC(=O)O)NC(=O)C(C)(C)NC(=O)[C@H](CCC(N)=O)NC(=O)[C@H](C)NC(=O)[C@H](CCCCNC(=O)COCCOCCNC(=O)COCCOCCNC(=O)CC[C@H](NC(=O)CCCCCCCCCCCCCCCCCCC(=O)O)C(=O)O)NC(=O)[C@H](CCN)NC(=O)[C@H](CC(=O)O)NC(=O)[C@H](CC(C)C)NC(=O)[C@](C)(CC(C)C)NC(=O)[C@@H](NC(=O)[C@H](CO)NC(=O)[C@H](Cc1ccc(O)cc1)NC(=O)[C@H](CC(=O)O)NC(=O)[C@H](CO)NC(=O)[C@@H](NC(=O)[C@](C)(Cc1ccccc1F)NC(=O)[C@@H](NC(=O)CNC(=O)[C@H](CCC(=O)O)NC(=O)C(C)(C)NC(=O)[C@@H](N)Cc1ccc(O)cc1)[C@@H](C)O)[C@@H](C)O)[C@@H](C)CC)[C@@H](C)CC)C(=O)N[C@@H](CCC(=O)O)C(=O)NCC(=O)NCC(=O)N1CCC[C@H]1C(=O)N[C@@H](CO)C(=O)N[C@@H](CO)C(=O)NCC(=O)N[C@@H](C)C(=O)N1CCC[C@H]1C(=O)N1CCC[C@H]1C(=O)N1CCC[C@H]1C(=O)N[C@@H](CO)C(N)=O` [Example 217] (H-Y[Aib]EGT[αMePhe(2-F)]TSDYSI[αMeL]LD[Dab]K([AEEA-AEEA-γGlu-C20 diacid])AQ[Aib]EFI[dE]YLIEGGPSSGAPPPS-NH2), the values for the Ki at human Gcg receptor, at human GIP receptor and at human GLP-1R were 516 nM, 0.0376 nM and 2.02 nM, respectively. For the same compound, the EC50 in test [1] was 0.0383 nM; in test [2], 0.0563 nM.
As to `CC[C@H](C)[C@H](NC(=O)[C@H](CC(C)C)NC(=O)[C@H](Cc1ccc(O)cc1)NC(=O)[C@@H](CCC(=O)O)NC(=O)[C@@H](NC(=O)[C@H](Cc1ccccc1)NC(=O)[C@H](CCC(=O)O)NC(=O)C(C)(C)NC(=O)[C@H](CCC(N)=O)NC(=O)[C@H](C)NC(=O)[C@H](CCCCNC(=O)COCCOCCNC(=O)COCCOCCNC(=O)CC[C@H](NC(=O)CCCCCCCCCCCCCCCCCCC(=O)O)C(=O)O)NC(=O)[C@H](CN)NC(=O)[C@H](CC(=O)O)NC(=O)[C@H](CC(C)C)NC(=O)[C@](C)(CC(C)C)NC(=O)[C@@H](NC(=O)[C@H](CO)NC(=O)[C@H](Cc1ccc(O)cc1)NC(=O)[C@H](CC(=O)O)NC(=O)[C@H](CO)NC(=O)[C@@H](NC(=O)[C@](C)(Cc1ccccc1F)NC(=O)[C@@H](NC(=O)CNC(=O)[C@H](CCC(=O)O)NC(=O)C(C)(C)NC(=O)[C@@H](N)Cc1ccc(O)cc1)[C@@H](C)O)[C@@H](C)O)[C@@H](C)CC)[C@@H](C)CC)C(=O)N[C@@H](CCC(=O)O)C(=O)NCC(=O)NCC(=O)N1CCC[C@H]1C(=O)N[C@@H](CO)C(=O)N[C@@H](CO)C(=O)NCC(=O)N[C@@H](C)C(=O)N1CCC[C@H]1C(=O)N1CCC[C@H]1C(=O)N1CCC[C@H]1C(=O)N[C@@H](CO)C(N)=O` [Example 218] (H-Y[Aib]EGT[αMePhe(2-F)]TSDYSI[αMeL]LD[Dap]K([AEEA-AEEA-γGlu-C20 diacid])AQ[Aib]EFI[dE]YLIEGGPSSGAPPPS-NH2), the values for the Ki at human Gcg receptor, on human GIP receptor and on human GLP-1R were 270 nM, 0.0593 nM and 2.54 nM, respectively. Further, the EC50 in test [1] stood at 0.0423 nM; in test [2], 0.0413 nM.
As to `CC[C@H](C)[C@H](NC(=O)[C@H](CC(C)C)NC(=O)[C@H](Cc1ccc(O)cc1)NC(=O)[C@@H](CCC(=O)O)NC(=O)[C@@H](NC(=O)[C@H](Cc1ccccc1)NC(=O)[C@H](CCC(=O)O)NC(=O)C(C)(C)NC(=O)[C@H](CCC(N)=O)NC(=O)[C@H](C)NC(=O)[C@H](CCCCNC(=O)COCCOCCNC(=O)COCCOCCNC(=O)CC[C@H](NC(=O)CCCCCCCCCCCCCCCCC(=O)O)C(=O)O)NC(=O)[C@H](CCC(=O)O)NC(=O)[C@H](CC(=O)O)NC(=O)[C@H](CC(C)C)NC(=O)[C@](C)(CC(C)C)NC(=O)[C@@H](NC(=O)[C@H](CO)NC(=O)[C@H](Cc1ccc(O)cc1)NC(=O)[C@H](CC(=O)O)NC(=O)[C@H](CO)NC(=O)[C@@H](NC(=O)[C@](C)(Cc1ccccc1F)NC(=O)[C@@H](NC(=O)CNC(=O)[C@H](CCC(=O)O)NC(=O)C(C)(C)NC(=O)[C@@H](N)Cc1ccc(O)cc1)[C@@H](C)O)[C@@H](C)O)[C@@H](C)CC)[C@@H](C)CC)C(=O)N[C@@H](CCC(=O)O)C(=O)NCC(=O)NCC(=O)N1CCC[C@H]1C(=O)N[C@@H](CO)C(=O)N[C@@H](CO)C(=O)NCC(N)=O` [Example 219] (H-Y[Aib]EGT[αMePhe(2-F)]TSDYSI[αMeL]LDEK([AEEA-AEEA-γGlu-C18 diacid])AQ[Aib]EFI[dE]YLIEGGPSSG-NH2), the Ki is 373 nM on human Gcg receptor, 0.0689 nM at human GIP receptor and 2.01 nM on human GLP-1R. Further, the EC50 is 0.0403 nM in test [1] and 0.0341 nM in test [2].
As to `CC[C@H](C)[C@H](NC(=O)[C@H](CC(C)C)NC(=O)[C@H](Cc1ccc(O)cc1)NC(=O)[C@@H](CCC(=O)O)NC(=O)[C@@H](NC(=O)[C@H](Cc1ccccc1)NC(=O)[C@H](CCC(=O)O)NC(=O)C(C)(C)NC(=O)[C@H](CCC(N)=O)NC(=O)[C@H](C)NC(=O)[C@H](CCCCNC(=O)COCCOCCNC(=O)COCCOCCNC(=O)CC[C@H](NC(=O)CCCCCCCCCCCCCCCCC(=O)O)C(=O)O)NC(=O)[C@H](CCC(=O)O)NC(=O)[C@H](CC(=O)O)NC(=O)[C@H](CC(C)C)NC(=O)[C@](C)(CC(C)C)NC(=O)[C@@H](NC(=O)[C@H](CO)NC(=O)[C@H](Cc1ccc(O)cc1)NC(=O)[C@H](CC(=O)O)NC(=O)[C@H](CO)NC(=O)[C@@H](NC(=O)[C@](C)(Cc1ccccc1F)NC(=O)[C@@H](NC(=O)CNC(=O)[C@H](CCC(=O)O)NC(=O)C(C)(C)NC(=O)[C@@H](N)Cc1ccc(O)cc1)[C@@H](C)O)[C@@H](C)O)[C@@H](C)CC)[C@@H](C)CC)C(=O)N[C@@H](CCC(=O)O)C(=O)NCC(=O)NCC(N)=O` [Example 220] (H-Y[Aib]EGT[αMePhe(2-F)]TSDYSI[αMeL]LDEK([AEEA-AEEA-γGlu-C18 diacid])AQ[Aib]EFI[dE]YLIEGG-NH2; N-terminus assumed), the values for the Ki on human Gcg receptor, at human GIP receptor and on human GLP-1R were 377 nM, 0.0919 nM and 2.71 nM, respectively. Besides, the EC50 worked out at 0.0312 nM in test [1] and 0.0315 nM in test [2].

For the origin of these results see patent US12252524B2, “GIP/GLP1 co-agonist compounds” (Eli Lilly and Company, priority 2018, dated 2025).
